Target: T1, hGPR120 (Homo sapiens, UniProt Q5NUL3)
T1 construct: expressed in transfected cells; host or cells: CHO-K1
T1 sequence (Q5NUL3 1-361): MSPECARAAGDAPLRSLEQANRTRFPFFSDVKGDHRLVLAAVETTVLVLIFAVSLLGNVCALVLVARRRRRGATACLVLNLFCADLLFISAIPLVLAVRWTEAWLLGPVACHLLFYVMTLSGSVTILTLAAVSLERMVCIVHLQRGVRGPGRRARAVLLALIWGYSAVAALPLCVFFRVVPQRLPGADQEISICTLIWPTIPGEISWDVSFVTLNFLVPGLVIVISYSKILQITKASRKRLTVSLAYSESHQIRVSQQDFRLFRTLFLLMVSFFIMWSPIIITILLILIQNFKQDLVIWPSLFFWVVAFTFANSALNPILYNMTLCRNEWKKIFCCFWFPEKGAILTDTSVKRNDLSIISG
Assay: Measurement of Activity of GPR120 Agonist (Cell-Based Assay), Calcium 5 dye fluorescence
Settings: CHO-K1 cells expressing Ga16 and hGPR120
Procedure, shortened: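 Gα16/hGPR120 CHO-K1; 18 h plating, 37 °C, 5% CO2; Calcium 5 dye load 1 h; agonist serial dilution, 0.5% DMSO final; fluor Ex485/Em525; response as % of 1% DMSO vehicle.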

## O=C(O)CCCOc1c(F)cc(-c2cccnc2SC2CCCCC2)cc1F [Example 292, 4-[4-(2-cyclohexylsulfanyl-pyridin-3-yl)-2,6-difluoro-phenoxy]-butyric acid]
  EC50: 2 to 20 µM

## CCCSc1cccc(-c2cc(F)c(N3CCC(CC(=O)O)CC3)c(F)c2)n1 [Example 298, 2-[1-[2,6-difluoro-4-(6-propylsulfanyl-2-pyridyl)phenyl]-4-piperidyl]acetic acid]
  EC50: 0.2 to 2 µM

## O=C(O)CCCOc1c(F)cc(-n2ccc3cccc(Cl)c32)cc1F [Example 472, 4-[4-(7-chloroindol-1-yl)-2,6-difluoro-phenoxy]butanoic acid]
  EC50: < 0.2 µM

## Cc1nc(COCC2CC2)c(-c2cc(F)c(N3CCC(CC(=O)O)CC3)c(F)c2)s1 [Example 570, {1-[4-(4-cyclopropylmethoxymethyl-2-methyl-thiazol-5-yl)-2,6-difluoro-phenyl]-piperidin-4-yl}-acetic acid]
  EC50: 0.2 to 2 µM

## O=C(O)CC1CCN(c2c(F)cc(-c3nccc(Oc4cccnc4)n3)cc2F)CC1 [Example 512]
  EC50: 0.2 to 2 µM

## CC(C)n1cc(Cl)c2ccc(-c3cc(F)c(OCCCC(=O)O)c(F)c3)cc21 [Example 562, 4-[4-(3-chloro-1-isopropyl-1H-indol-6-yl)-2,6-difluoro-phenoxy]-butanoic acid]
  EC50: 2 to 20 µM

## O=C(O)CCC1CCc2cc(-c3cccc(OC4CCC4)n3)ccc2S1 (stereo not drawn) [Example 441, 3-[6-[6-(cyclobutoxy)-2-pyridyl]thiochroman-2-yl]propanoic acid]
  EC50: < 0.2 µM

## CN(CCCC(=O)O)c1c(F)cc(-c2cccc3c2OC2(CCCC2)O3)cc1F [Example 449, 4-(2,6-difluoro-N-methyl-4-spiro[1,3-benzodioxol-2,1′-cyclopentan]-4-yl-anilino)butanoic acid]
  EC50: < 0.2 µM

## Cc1cc(Oc2cccc(C(F)(F)F)c2)nc(-c2cc(F)c(N3CCC(CC(=O)O)CC3)c(F)c2)n1 [Example 613, 2-[1-[2,6-difluoro-4-[4-methyl-6-[3-(trifluoromethyl)phenoxy]pyrimidin-2-yl]phenyl]-4-piperidyl]acetic acid]
  EC50: 2 to 20 µM

## O=C(O)CCCOc1c(F)cc(-c2ccc3ccn(CC4CC4)c3c2)cc1F [Example 559, 4-[4-(1-cyclopropylmethyl-1H-indol-6-yl)-2,6-difluoro-phenoxy]-butanoic acid]
  EC50: < 0.2 µM

## CCCOc1cc(C)nc(-c2cc(F)c(N3CCC(CC(=O)O)CC3)c(F)c2)n1 [Example 351, 2-[1-[2,6-difluoro-4-(4-methyl-6-propoxy-pyrimidin-2-yl)phenyl]-4-piperidyl]acetic acid]
  EC50: < 0.2 µM

## CC(C)Sc1ncccc1-c1cc(F)c(-n2cc(CCC(=O)O)cn2)c(F)c1 [Example 131, 3-[1-[2,6-difluoro-4-(2-isopropylsulfanyl-3-pyridyl)phenyl]pyrazol-4-yl]propanoic acid]
  EC50: 2 to 20 µM

## O=C(O)CCCOc1ccc(-c2cccnc2SC2CCC2)cc1F [Example 235, 4-[4-(2-cyclobutylsulfanyl-pyridin-3-yl)-2-fluoro-phenoxy]-butyric acid]
  EC50: < 0.2 µM

## CC(C)CCOc1ccnc(-c2cc(F)c(N3CCC(CC(=O)O)CC3)c(F)c2)n1 [Example 599, (1-{2,6-difluoro-4-[4-(3-methyl-butoxy)-pyrimidin-2-yl]-phenyl}-piperidin-4-yl)-acetic acid]
  EC50: 0.2 to 2 µM

## CC(C)Sc1cccc(-c2cc(F)c(N3CCC(CC(=O)O)C3)c(F)c2)n1 (stereo not drawn) [Example 125, 2-[1-[2,6-difluoro-4-(6-isopropylsulfanyl-2-pyridyl)phenyl]pyrrolidin-3-yl]acetic acid]
  EC50: < 0.2 µM

## CC(C)Oc1ncccc1-c1cc(F)c(N(C)CCCC(=O)O)c(F)c1 [Example 214, 4-{[2,6-difluoro-4-(2-isopropoxy-pyridin-3-yl)-phenyl]-methyl-amino}-butyric acid]
  EC50: 0.2 to 2 µM

## O=C(O)CCCOc1c(F)cc(-c2csc(OC3CCC3)n2)cc1Cl [Example 426, 4-[2-chloro-4-(2-cyclobutoxy-thiazol-4-yl)-6-fluoro-phenoxy]-butyric acid]
  EC50: < 0.2 µM

## CCN(CCCC(=O)O)c1c(F)cc(-c2cccnc2OCC2CCC2)cc1F [Example 225, 4-{[4-(2-cyclobutylmethoxy-pyridin-3-yl)-2,6-difluoro-phenyl]-ethyl-amino}-butyric acid]
  EC50: 0.2 to 2 µM

## CCOCc1cccc(-c2cc(F)c(N3CCC(CC(=O)O)CC3)c(F)c2)c1 [Example 303, 2-[1-[4-[3-(ethoxymethyl)phenyl]-2,6-difluoro-phenyl]-4-piperidyl]acetic acid]
  EC50: 0.2 to 2 µM

## O=C(O)CCc1ccc2cc(-c3cccc(Oc4ccccc4F)n3)ccc2c1 [Example 152, 3-{6-[6-(2-fluoro-phenoxy)-pyridin-2-yl]-naphthalen-2-yl}-propanoic acid]
  EC50: 0.2 to 2 µM

## O=C(O)Cc1cnn(-c2ccc(-c3cccnc3SC3CCC3)cc2)c1 [Example 93, 2-[1-[4-(2-cyclobutylsulfanyl-3-pyridyl)phenyl]pyrazol-4-yl]acetic acid]
  EC50: 2 to 20 µM

## O=C(O)CC1CCN(c2c(F)cc(-c3ccc(Cl)c(OC4CCC4)n3)cc2F)CC1 [Example 311, 2-[1-[4-[5-chloro-6-(cyclobutoxy)-2-pyridyl]-2,6-difluoro-phenyl]-4-piperidyl]acetic acid]
  EC50: 0.2 to 2 µM

## O=C(O)CCCOc1c(F)cc(-c2ccnc(OC3CCC3)n2)cc1Cl [Example 423, 4-[2-chloro-4-(2-cyclobutoxy-pyrimidin-4-yl)-6-fluoro-phenoxy]-butyric acid]
  EC50: < 0.2 µM

## Cc1nsc(OC2CCC2)c1-c1cc(F)c(N2CCC(CC(=O)O)C2)c(F)c1 (stereo not drawn) [Example 591, {1-[4-(5-cyclobutoxy-3-methyl-isothiazol-4-yl)-2,6-difluoro-phenyl]-pyrrolidin-3-yl}-acetic acid]
  EC50: < 0.2 µM

## O=C(O)CC1CCC(c2ccc(-c3cccnc3OC3CCCC3)cc2F)CC1 (stereo not drawn) [Example 187, {4-[4-(2-cyclopentyloxy-pyridin-3-yl)-2-fluoro-phenyl]-cyclohexyl}-acetic acid]
  EC50: 0.2 to 2 µM

## O=C(O)CC1CCN(c2c(F)cc(-c3cccc(COC4CCC4)n3)cc2F)CC1 [Example 313, 2-[1-[4-[6-(cyclobutoxymethyl)-2-pyridyl]-2,6-difluoro-phenyl]-4-piperidyl]acetic acid]
  EC50: > 20 µM

## O=C(O)CCC1CC1c1c(F)cc(-c2cccc(OCC3CC3)n2)cc1F (stereo not drawn) [Example 191, 3-{2-[4-(6-cyclopropylmethoxy-pyridin-2-yl)-2,6-difluoro-phenyl]-cyclopropyl}-propanoic acid]
  EC50: < 0.2 µM

## O=C(O)CC1CCN(c2c(F)cc(-c3ccc(COCC4CC4)s3)cc2F)CC1 [Example 569, {1-[4-(5-cyclomethoxymethyl-thiophen-2-yl)-2,6-difluoro-phenyl]-piperidin-4-yl}-acetic acid]
  EC50: 2 to 20 µM

## O=C(O)CC1CCN(c2c(F)cc(-c3cccc(OCC4CC4)c3)cc2F)CC1 [Example 301, 2-[1-[4-[3-(cyclopropylmethoxy)phenyl]-2,6-difluoro-phenyl]-4-piperidyl]acetic acid]
  EC50: 0.2 to 2 µM

## O=C(O)CC1CCN(c2c(F)cc(-c3cc(C(F)(F)F)cc(OC4CCC4)n3)cc2F)CC1 [Example 614, {1-[4-(6-cyclobutoxy-4-trifluoromethyl-pyridin-2-yl)-2,6-difluoro-phenyl]-piperidin-4-yl}-acetic acid]
  EC50: 2 to 20 µM

## CC(CCCC(=O)O)c1c(F)cc(-c2cccnc2SC2CCC2)cc1F (stereo not drawn) [Example 48, 5-[4-(2-cyclobutylsulfanyl-3-pyridyl)-2,6-difluoro-phenyl]hexanoic acid]
  EC50: < 0.2 µM

## CN(CCCC(=O)O)c1c(F)cc(-c2occc2COCC2CC2)cc1F [Example 470, 4-[4-[3-(cyclopropylmethoxymethyl)-2-furyl]-2,6-difluoro-N-methyl-anilino]butanoic acid]
  EC50: 0.2 to 2 µM

## O=C(O)CC1CCN(c2c(F)cc(-c3cccc(NC4CCCC4)n3)cc2F)CC1 [Example 358, 2-[1-[4-[6-(cyclopentylamino)-2-pyridyl]-2,6-difluoro-phenyl]-4-piperidyl]acetic acid]
  EC50: 0.2 to 2 µM

## CC(CCCC(=O)O)c1c(F)cc(-c2cccc(SC3CCCC3)n2)cc1F (stereo not drawn) [Example 54, 5-[4-(6-cyclopentylsulfanyl-2-pyridyl)-2,6-difluoro-phenyl]hexanoic acid]
  EC50: < 0.2 µM

## CC(CCCC(=O)O)c1c(F)cc(-c2cc(Cl)cc3c2OC(C)(C)C3)cc1F (stereo not drawn) [Example 256, 5-[4-(5-chloro-2,2-dimethyl-2,3-dihydro-benzofuran-7-yl)-2,6-difluoro-phenyl]-hexanoic acid]
  EC50: 0.2 to 2 µM

## O=C(O)CCCOc1c(F)cc(-c2cccc(OCc3ccccc3)c2)cc1F [Example 17, 4-(3′-benzyloxy-3,5-difluoro-biphenyl-4-yloxy)-butyric acid]
  EC50: 2 to 20 µM

## CC(C)(CCCC(=O)O)c1c(F)cc(-c2cccnc2OC2CCCC2)cc1F [Example 162, 5-[4-(2-cyclopentyloxy-pyridin-3-yl)-2,6-difluoro-phenyl]-5-methyl-hexanoic acid]
  EC50: 0.2 to 2 µM

## CCSc1ncccc1-c1cc(F)c(N(C)CCCC(=O)O)c(F)c1 [Example 208, 4-{[4-(2-ethylsulfanyl-pyridin-3-yl)-2,6-difluoro-phenyl]-methyl-amino}-butyric acid]
  EC50: < 0.2 µM

## O=C(O)CCCOc1ccc(-c2cccnc2OC2CCC2)cc1F [Example 233, 4-[4-(2-cyclobutoxy-pyridin-3-yl)-2-fluoro-phenoxy]-butyric acid]
  EC50: 0.2 to 2 µM

Reference: US11261186B2, “Biaryl derivative as GPR120 agonist” (LG CHEM, LTD., priority 2014, dated 2022)
